Results taken from paper PMC3663906 (Journal of medicinal chemistry, 2013).

Assays:
[1] = Mouse oral pharmacokinetic study; assay type: in vivo
T. brucei brucei CA427 = test: Mouse model of HAT
[2] = tested on: endocytosis of transferrin in T. brucei; test: Receptor-mediated endocytosis of transferrin in the trypanosome
T. brucei [3] = test: Trypanosome cell cycle analysis
HepG2 cells = test: HepG2 cell toxicity assay; assay type: cell-based; conditions: Homo sapiens, HepG2, read-out: HepG2 IC50, MTT cytotoxicity, Tables 5 and 6
[4] = tested on: endocytosis of transferrin in T. brucei; conditions: cited from earlier work
T. brucei [5] = conditions: cited from earlier work

SMILES: Fc1cccc(COc2ccc(Nc3ncnc4ccc(-c5cccc(N6CCOCC6)c5)cc34)cc2Cl)c1 [Compound 23a, N-(3-chloro-4-((3-fluorobenzyl)oxy)phenyl)-6-(3-morpholinophenyl)quinazolin-4-amine]
- oral bioavailability [1]: orally bioavailable
- survival on day 8 (all untreated mice had died) (T. brucei brucei CA427; 10 mg/kg twice per day i.p.): all alive
- survival (T. brucei brucei CA427; 10 mg/kg twice per day oral): died in the same time frame as control mice
- toxicity in multi-day regimen (T. brucei brucei CA427; mouse, 40 mg/kg dose once per day): drug-related toxicity was observed
- effect on receptor-mediated endocytosis of transferrin [2]: no effect
- effect on the cell cycle (T. brucei [3]): blocks duplication of the kinetoplast and arrests cytokinesis, without inhibiting division of the trypanosome nucleus
- fraction of cells containing two nuclei and one kinetoplast (1K2N) (T. brucei [3]; DAPI microscopy): selectively increased
- number of cells containing one nucleus (1K1N, 1Ke1N) (T. brucei [3]; DAPI microscopy): reduced

SMILES: O=S(=O)(c1cccc(-c2ccc3ncnc(Nc4ccc(OCc5cccc(F)c5)c(Cl)c4)c3c2)c1)N1CCCCC1 [Compound 10m, N-(3-chloro-4-((3-fluorobenzyl)oxy)phenyl)-6-(3-(piperidin-1-ylsulfonyl)phenyl)quinazolin-4-amine]
- IC50 (HepG2 cells): > 20 µM

SMILES: O=S(=O)(c1ccc(-c2ccc3ncnc(Nc4ccc(OCc5cccc(F)c5)c(Cl)c4)c3c2)cc1)N1CCCCC1 [Compound 10l, N-(3-chloro-4-((3-fluorobenzyl)oxy)phenyl)-6-(4-(piperidin-1-ylsulfonyl)phenyl)quinazolin-4-amine]
- IC50 (HepG2 cells): > 20 µM

SMILES: CS(=O)(=O)CCNCc1ccc(-c2ccc3ncnc(Nc4ccc(OCc5cccc(F)c5)c(Cl)c4)c3c2)o1 [Compound 1, lapatinib]
- effect on endocytosis of transferrin in the trypanosome [4]: inhibited endocytosis of transferrin

SMILES: O=S(=O)(c1cccc(-c2ccc3ncnc(Nc4ccc(OCc5cccc(F)c5)c(Cl)c4)c3c2)c1)N1CCOCC1 [Compound 10k, N-(3-chloro-4-((3-fluorobenzyl)oxy)phenyl)-6-(3-(morpholinosulfonyl)phenyl)quinazolin-4-amine]
- IC50 (HepG2 cells): > 20 µM

SMILES: C=CC(=O)Nc1cc2c(Nc3ccc(F)c(Cl)c3)ncnc2cc1OCCCN1CCOCC1 [canertinib]
- EC50 for killing T. brucei (T. brucei [5]): low micromolar range
